Where only a bound is given, the exact number is not on record here.

Assay [1] has as its target T1, DDR1 (Homo sapiens, UniProt Q08345). Put plainly: DDR1 LanthaScreen Europium Kinase Binding assay. The conditions noted are these: binding affinity; IC50 converted in Ki using Cheng-Prusoff; read-out: Ki DDR1. As for the experimental part: (§1) DDR1 and DDR2 binding assays were performed using Life Technologies LanthaScreen™ Europium Kinase Binding assay. The compounds were incubated with 5 nM DDR1 (Carna Biosciences) or 5 nM DDR2 (Life Technologies) for 1 hour at room temperature in white 384-well OptiPlate (PerkinElmer), containing 20 nM or 10 nM Kinase Tracer 178 respectively and 2 nM Europium labelled anti-GST antibody (Life Technologies) in assay buffer (50 mM HEPES pH 7.5, 10 mM MgCI2, 1 mM EGTA and 0.01% BRIJ35). The ratio of fluorescence emission 665 nm/615 nm after excitation at 340 nm was obtained using the Tecan Spark 20M plate reader. IC50 values were determined in GraphPad Prism 7.0 software, using 4 parameter model: log(inhibitor) vs. response. IC50 values were converted in Ki using the Cheng-Prusoff equation (Ki=IC50/(1+[Tracer]/Kd).
(In general: Time-resolved FRET reads energy transfer from a long-lived donor to a nearby acceptor.)

The target in assay [2] is T2, DDR2 (Homo sapiens, UniProt Q16832).
T2 sequence (Q16832 22-855): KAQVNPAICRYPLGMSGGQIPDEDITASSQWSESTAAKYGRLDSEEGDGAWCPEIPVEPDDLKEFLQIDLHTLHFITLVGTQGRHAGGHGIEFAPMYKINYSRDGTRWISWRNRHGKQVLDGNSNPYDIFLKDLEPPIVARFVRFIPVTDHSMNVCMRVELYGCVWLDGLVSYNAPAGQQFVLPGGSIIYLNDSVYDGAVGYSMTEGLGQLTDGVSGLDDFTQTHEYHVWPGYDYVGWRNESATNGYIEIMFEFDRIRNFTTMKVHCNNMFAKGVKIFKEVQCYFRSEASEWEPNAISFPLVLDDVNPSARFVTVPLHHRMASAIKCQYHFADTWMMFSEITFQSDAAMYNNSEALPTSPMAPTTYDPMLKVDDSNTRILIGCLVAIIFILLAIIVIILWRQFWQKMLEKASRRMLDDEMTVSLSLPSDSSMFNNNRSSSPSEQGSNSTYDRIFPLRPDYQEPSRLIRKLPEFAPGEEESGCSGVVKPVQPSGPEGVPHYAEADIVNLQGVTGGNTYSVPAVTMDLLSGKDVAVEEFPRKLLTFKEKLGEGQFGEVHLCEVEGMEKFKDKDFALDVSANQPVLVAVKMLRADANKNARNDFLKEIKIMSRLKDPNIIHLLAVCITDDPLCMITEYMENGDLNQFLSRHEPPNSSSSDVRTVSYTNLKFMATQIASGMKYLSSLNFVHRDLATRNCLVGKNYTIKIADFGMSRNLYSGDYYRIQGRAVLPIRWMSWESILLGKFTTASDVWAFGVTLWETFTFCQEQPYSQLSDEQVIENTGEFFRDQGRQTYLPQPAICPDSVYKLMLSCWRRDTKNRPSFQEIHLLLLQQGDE
Put plainly: DDR2 LanthaScreen Europium Kinase Binding assay. The conditions noted are these: binding affinity; IC50 converted in Ki using Cheng-Prusoff; read-out: Ki DDR2. As to the method: as §1

Assay [3] addresses T1, DDR1. The assay can be described thus: DDR1 cell based assay (PathHunter U2OS DDR1, collagen II stimulation). Particulars: U2OS-DDR1 cells, bovine Type II Collagen stimulation. As to the method: The inhibition of DDR1 receptor activation by compounds was evaluated by PathHunter® U2OS DDR1 assay (Eurofins DiscoverX), according to the manufacturer's instructions. Briefly, U2OS-DDR1 cells were seeded in white 384-well plates at a density of 5000 cells/well and incubated for 2 hours at 37° C. and 5% CO2. Cells were then treated with compounds at different concentrations and incubated for 30 minutes, before stimulation with bovine Type II Collagen 20 μg/ml and incubation overnight at 37° C. and 5% CO2. PathHunter Detection Reagents were prepared according to the protocol provided by DiscoverX and 20 μl/well of this mix were added to each well. After incubating the plates for 1 hour at room temperature in the dark, luminescence signal was acquired with a plate reader. Raw data were normalized to vehicle control (0% for normalization) and positive control (100% for normalization; cells treated with 20 μg/ml collagen II) and IC50 parameters were calculated in GraphPad Prism 8.0 software, using sigmoidal dose-response curve fitting with variable slope.

T1 sequence (Q08345 19-913): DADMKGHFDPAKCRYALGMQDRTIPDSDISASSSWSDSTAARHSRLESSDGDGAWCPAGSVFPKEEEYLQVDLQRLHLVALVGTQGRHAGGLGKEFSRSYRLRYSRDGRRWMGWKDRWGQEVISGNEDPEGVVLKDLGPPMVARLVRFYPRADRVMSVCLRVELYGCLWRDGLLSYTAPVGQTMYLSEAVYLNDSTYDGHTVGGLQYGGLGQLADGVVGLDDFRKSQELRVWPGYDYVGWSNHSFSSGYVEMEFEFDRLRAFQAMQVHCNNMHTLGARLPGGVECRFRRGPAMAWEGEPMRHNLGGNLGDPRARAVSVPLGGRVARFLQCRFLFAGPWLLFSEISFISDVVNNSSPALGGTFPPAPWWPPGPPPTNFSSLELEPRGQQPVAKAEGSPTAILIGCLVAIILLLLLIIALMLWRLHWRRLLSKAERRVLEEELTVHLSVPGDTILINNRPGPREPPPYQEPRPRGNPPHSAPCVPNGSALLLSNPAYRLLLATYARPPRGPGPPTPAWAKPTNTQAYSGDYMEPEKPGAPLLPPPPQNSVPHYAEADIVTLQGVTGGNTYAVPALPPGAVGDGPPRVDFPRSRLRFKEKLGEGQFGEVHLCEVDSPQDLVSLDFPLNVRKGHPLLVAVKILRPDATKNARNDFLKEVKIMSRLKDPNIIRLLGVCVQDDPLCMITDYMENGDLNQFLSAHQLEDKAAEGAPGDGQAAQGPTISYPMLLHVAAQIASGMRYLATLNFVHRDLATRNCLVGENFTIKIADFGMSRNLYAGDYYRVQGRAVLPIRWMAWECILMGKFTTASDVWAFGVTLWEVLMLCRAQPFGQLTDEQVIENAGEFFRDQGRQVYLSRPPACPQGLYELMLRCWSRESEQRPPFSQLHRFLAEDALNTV

The term Ki denotes a dissociation constant, usually derived from enzyme kinetics or from competition with a known ligand. By IC50 is commonly meant the midpoint of a concentration-inhibition curve. A low value points to greater potency. For the molecule `Cc1cn(-c2cc(C(=O)Nc3ccc4c(c3)N(C(=O)c3cnc5ccccn35)CC4)cc(C(F)(F)F)c2)cn1` [Example 19, N-(1-(imidazo[1,2-a]pyridine-3-carbonyl)indolin-6-yl)-3-(4-methyl-1H-imidazol-1-yl)-5-(trifluoromethyl)benzamide], the Ki in assay [1] and in assay [2] was less than 25 nM throughout. Also, the IC50 in assay [3] is 25 to 50 nM.

Consider `Cc1cn(-c2cc(C(=O)Nc3ccc4c(c3)N(C(=O)c3cnc5cnccn35)CC4)cc(C(F)(F)F)c2)cn1` [Example 20, N-(1-(imidazo[1,2-a]pyrazine-3-carbonyl)indolin-6-yl)-3-(4-methyl-1H-imidazol-1-yl)-5-(trifluoromethyl)benzamide], for which the Ki in assay [1] and in assay [2] was less than 25 nM throughout. In assay [3], this molecule yielded a 50% inhibitory concentration (IC50) of 25 to 50 nM.

As for `Cc1cn(-c2cc(C(=O)Nc3ccc4c(c3)N(Cc3cnc5ccccn35)CC4)cc(C(F)(F)F)c2)cn1` [Example 23, N-(1-(imidazo[1,2-a]pyridin-3-ylmethyl)indolin-6-yl)-3-(4-methyl-1H-imidazol-1-yl)-5-(trifluoromethyl)benzamide], the Ki in assay [1] and in assay [2] was less than 25 nM each time. In addition, in assay [3], the IC50 is 50 to 80 nM.

With `Cc1cn(-c2cc(NC(=O)c3ccc4c(c3)N(Cc3cnc5[nH]ncc5c3)CC4C)cc(C(F)(F)F)c2)cn1` (stereo not drawn) [Example 24, 1-((1H-pyrazolo[3,4-b]pyridin-5-yl)methyl)-3-methyl-N-(3-(4-methyl-1H-imidazol-1-yl)-5-(trifluoromethyl)phenyl)indoline-6-carboxamide], the Ki in assay [1] and in assay [2] was 25 to 50 nM throughout. In assay [3], the 50% inhibitory concentration (IC50) is less than 25 nM.

`Cc1cn(-c2cc(NC(=O)c3ccc4c(c3)N(Cc3cnc5ccccn35)CC4C)cc(C(F)(F)F)c2)cn1` (stereo not drawn) [Example 25, 1-(imidazo[1,2-a]pyridin-3-ylmethyl)-3-methyl-N-(3-(4-methyl-1H-imidazol-1-yl)-5-(trifluoromethyl)phenyl)indoline-6-carboxamide]: the results for the Ki in assay [1] and in assay [2] were less than 25 nM and 25 to 50 nM, respectively. For the same molecule, the IC50 in assay [3] was in the range of 25 to 50 nM.

In the case of `Cc1cn(-c2cc(NC(=O)c3ccc4c(c3)N(C(=O)c3cnc5cnccn35)CC4C)cc(C(F)(F)F)c2)cn1` (stereo not drawn) [Example 29, 1-(imidazo[1,2-a]pyrazine-3-carbonyl)-3-methyl-N-(3-(4-methyl-1H-imidazol-1-yl)-5-(trifluoromethyl)phenyl)indoline-6-carboxamide], the Ki in assay [1] and in assay [2] was less than 25 nM throughout. In assay [3], this molecule displayed an IC50 of 50 to 80 nM.

For the molecule `CC1CN(Cc2cnc3[nH]ccc3c2)c2cc(C(=O)Nc3cccc(C(F)(F)F)c3)ccc21` (stereo not drawn) [Example 32, 1-((1H-pyrrolo[2,3-b]pyridin-5-yl)methyl)-3-methyl-N-(3-(trifluoromethyl)phenyl)indoline-6-carboxamide], the Ki in assay [1] and in assay [2] was 25 to 50 nM in each case. In assay [3], the IC50 is less than 25 nM.

As to `CC1CN(Cc2cnc3ccccn23)c2cc(C(=O)Nc3cccc(C(F)(F)F)c3)ccc21` (stereo not drawn) [Example 33, 1-(imidazo[1,2-a]pyridin-3-ylmethyl)-3-methyl-N-(3-(trifluoromethyl)phenyl)indoline-6-carboxamide], the values for the Ki in assay [1] and in assay [2] were less than 25 nM and 25 to 50 nM, respectively. This molecule gave an IC50 in assay [3] of 50 to 80 nM.

In the case of `CC(C)(C)c1cc(NC(=O)c2ccc3c(c2)N(Cc2cnc4[nH]ncc4c2)CC3)n(-c2ccccc2)n1` [Example 40, 1-((1H-pyrazolo[3,4-b]pyridin-5-yl)methyl)-N-(3-(tert-butyl)-1-phenyl-1H-pyrazol-5-yl)indoline-6-carboxamide], the Ki in assay [1] was 25 to 50 nM; in assay [2] it was less than 25 nM. In assay [3], this molecule displayed an IC50 of 25 to 50 nM.

As to `O=C(Nc1cc(F)cc(C(F)(F)F)c1)c1ccc2c(c1)N(Cc1cnc3cnccn13)CC2` [Example 41, N-(3-fluoro-5-(trifluoromethyl)phenyl)-1-(imidazo[1,2-a]pyrazin-3-ylmethyl)indoline-6-carboxamide], the Ki in assay [1] and in assay [2] was less than 25 nM in each case. In assay [3], this molecule returned an IC50 of 25 to 50 nM.

On to `O=C(Nc1cccc(C(F)(F)F)c1)c1ccc2c(c1)N(Cc1cnc3cnccn13)CC2` [Example 42, 1-(imidazo[1,2-a]pyrazin-3-ylmethyl)-N-(3-(trifluoromethyl)phenyl)indoline-6-carboxamide], for which the Ki in assay [1] and in assay [2] was less than 25 nM throughout. In addition, the half-maximal inhibitory concentration (IC50) in assay [3] is less than 25 nM.

With `O=C(Nc1cccc(OC(F)(F)F)c1)c1ccc2c(c1)N(Cc1cnc3cnccn13)CC2` [Example 43, 1-(imidazo[1,2-a]pyrazin-3-ylmethyl)-N-(3-(trifluoromethoxy)phenyl)indoline-6-carboxamide], the Ki in assay [1] and in assay [2] was less than 25 nM each time. In addition, the IC50 in assay [3] is 25 to 50 nM.

`O=C(Nc1cc(F)cc(OC(F)(F)F)c1)c1ccc2c(c1)N(Cc1cnc3cnccn13)CC2` [Example 44, N-(3-fluoro-5-(trifluoromethoxy)phenyl)-1-(imidazo[1,2-a]pyrazin-3-ylmethyl)indoline-6-carboxamide]: the Ki in assay [1] and in assay [2] was less than 25 nM throughout. The molecule also had an IC50 in assay [3] of less than 25 nM.

Regarding `CC(C)(c1cc(NC(=O)c2ccc3c(c2)N(Cc2cnc4cnccn24)CC3)no1)C(F)(F)F` [Example 45, 1-(imidazo[1,2-a]pyrazin-3-ylmethyl)-N-(5-(1,1,1-trifluoro-2-methylpropan-2-yl)isoxazol-3-yl)indoline-6-carboxamide], the inhibition constant (Ki) in assay [1] and in assay [2] was less than 25 nM in each case. The molecule also returned a half-maximal inhibitory concentration (IC50) in assay [3] of 25 to 50 nM.

Regarding `COc1ccc(NC(=O)c2ccc3c(c2)N(Cc2cnc4cnccn24)CC3)cc1C(F)(F)F` [Example 46, 1-(imidazo[1,2-a]pyrazin-3-ylmethyl)-N-(4-methoxy-3-(trifluoromethyl)phenyl)indoline-6-carboxamide], the results for the Ki in assay [1] and in assay [2] were less than 25 nM and 25 to 50 nM, respectively. Besides, the IC50 in assay [3] was 50 to 80 nM.

Consider `CN(C)Cc1ccc(NC(=O)c2ccc3c(c2)N(Cc2cnc4cnccn24)CC3)cc1C(F)(F)F` [Example 48, N-(4-((dimethylamino)methyl)-3-(trifluoromethyl)phenyl)-1-(imidazo[1,2-a]pyrazin-3-ylmethyl)indoline-6-carboxamide], for which the Ki in assay [1] and in assay [2] was less than 25 nM each time. The same molecule yielded a half-inhibitory concentration (IC50) in assay [3] of 25 to 50 nM.

In the case of `O=C(Nc1cc(CN2CCOCC2)cc(C(F)(F)F)c1)c1ccc2c(c1)N(Cc1cnc3cnccn13)CC2` [Example 49, 1-(imidazo[1,2-a]pyrazin-3-ylmethyl)-N-(3-(morpholinomethyl)-5-(trifluoromethyl)phenyl)indoline-6-carboxamide], the Ki in assay [1] and in assay [2] was less than 25 nM each time. This molecule came in with an IC50 in assay [3] of 50 to 80 nM.

With `O=C(Nc1cc(CN2CCCC2)cc(C(F)(F)F)c1)c1ccc2c(c1)N(Cc1cnc3cnccn13)CC2` [Example 50, 1-(imidazo[1,2-a]pyrazin-3-ylmethyl)-N-(3-(pyrrolidin-1-ylmethyl)-5-(trifluoromethyl)phenyl)indoline-6-carboxamide], the Ki in assay [1] and in assay [2] was less than 25 nM each time. Further, the IC50 in assay [3] fell in the range of 25 to 50 nM.

The values above are taken from patent US20240217967A1, “INDOLINE DERIVATIVES AS DDRS INHIBITORS” (CHIESI FARMACEUTICI S.P.A., priority 2021, published 2024).
